Values quoted from earlier work, collected in patent US8968801B1, “Supplement composition for supporting DNA repair and method of use” (Cellhealth Technologies Ltd., priority 2011, dated 2015).

System: ras-transformed human mammary epithelial cells
Conditions: eupatilin derived from artemisia plants (Kim D H, et al. 2004)

## COc1ccc(-c2cc(=O)c3c(O)c(OC)c(O)cc3o2)cc1OC [eupatilin]
  cell cycle arrest: induces cell cycle arrest
